Test results as given in ChEMBL document CHEMBL1139821, “Synthesis and antitubercular activity of lipophilic moxifloxacin and gatifloxacin derivatives” (2007).
≈ marks a conversion by molar mass, not a printed value.

System: Mycobacterium tuberculosis
Test: Antitubercular activity against Mycobacterium tuberculosis H37Rv
Type: functional

Row | Structure (SMILES) | MIC [µg/mL]
1 | CCCCC(CC)CNCCNc1c(F)cc2c(=O)c(C(=O)O)cn(C3CC3)c2c1OC (centres undefined) | 0.62 (≈ 1.39 µM)
2 | CCCCCCCCNCCNc1c(F)cc2c(=O)c(C(=O)O)cn(C3CC3)c2c1OC | 12.5 (≈ 27.9 µM)
3 | CCCCCCCCCCNCCNc1c(F)cc2c(=O)c(C(=O)O)cn(C3CC3)c2c1OC | 0.62 (≈ 1.3 µM)
4 | CCCCCCCCCCCCCCNCCNc1c(F)cc2c(=O)c(C(=O)O)cn(C3CC3)c2c1OC | 6.25 (≈ 11.8 µM)
5 | CCCCCCNCCNc1c(F)cc2c(=O)c(C(=O)O)cn(C3CC3)c2c1OC | 5 (≈ 11.9 µM)
6 | CCCCCCNCCCNc1c(F)cc2c(=O)c(C(=O)O)cn(C3CC3)c2c1OC | 50 (≈ 115 µM)
7 | CCCCC(CC)CNCCCNc1c(F)cc2c(=O)c(C(=O)O)cn(C3CC3)c2c1OC (centres undefined) | 2.5 (≈ 5.42 µM)
8 | CCCCCCCCCCNCCCNc1c(F)cc2c(=O)c(C(=O)O)cn(C3CC3)c2c1OC | 0.31 (≈ 0.633 µM)
9 | CCCCCCCCCCCCNCCCNc1c(F)cc2c(=O)c(C(=O)O)cn(C3CC3)c2c1OC | 0.62 (≈ 1.2 µM)
10 | CCCCCCCCCCCCCCNCCCNc1c(F)cc2c(=O)c(C(=O)O)cn(C3CC3)c2c1OC | 0.62 (≈ 1.14 µM)
11 | CCCCCCCCCCCCNCCNc1c(F)cc2c(=O)c(C(=O)O)cn(C3CC3)c2c1OC | 1.25 (≈ 2.48 µM)
12 | CCCCCCCCNCCCNc1c(F)cc2c(=O)c(C(=O)O)cn(C3CC3)c2c1OC | 1.25 (≈ 2.71 µM)
13 | COc1c(N2CCNC(C)C2)c(F)cc2c(=O)c(C(=O)O)cn(C3CC3)c12 (centres undefined) [GATIFLOXACIN] | 0.1 (≈ 0.266 µM)
14 | CO[C@H]1/C=C/O[C@@]2(C)Oc3c(C)c(O)c4c(O)c(c(/C=N/N5CCN(C)CC5)c(O)c4c3C2=O)NC(=O)/C(C)=C\C=C\[C@H](C)[C@H](O)[C@@H](C)[C@@H](O)[C@@H](C)[C@H](OC(C)=O)[C@@H]1C [RIFAMPIN] | 1 (≈ 1.22 µM)
